Experimental data published in patent publication US5990104A, “Polycyclic alcaloid-derivatives as NMDA-receptor antagonists” (priority 1995, dated 1999).

How the values were obtained:
Assay type in all cases: in vivo
NMDA-induced convulsions = assay: Neuroprotective/anticonvulsant activity against NMDA-induced convulsions and mortality in mice; conditions: for CD50 (95% confidence interval): icv, NMDA 1 nmole/mouse; for CD50 (95% confidence interval) / time course of protecting effects: mice; for neuroprotectant activity, dose dependence: NMDA challenge in mice, FIGS. 1-3; for time course of protecting effects: i.c.v. preadministration at various doses, NMDA challenge
Description: The term CD50 as shown in Table 1 is defined as the dose of drug which induces a 50% reduction in the number of deaths caused by NMDA administration.
For purposes of comparison, the compounds of the present invention and reference standards were administered to mice and the time course of neuroprotectant activity was determined subsequent to challenge by NMDA. Compounds were administered i.c.v. or i.p. at different times and concentrations prior to injection of NMDA (1 nmol/mouse, I.C.V.). The mortality rate (CD50) TABLE I and the response curves.
In FIG. 1, dextrorphan was i.c.v. preadministered at a concentration of 1.0 (closed circle); 5.0 (open square); and 10 (closed square) nmole/mouse. The open circle represents preadministration of saline at a concentration of 10 μl/mouse.
A does dependent time course profile of the neuroprotectant activity against NMDA induced convulsions of compound #9 in mice is illustrated in FIG. 3. […] In both FIGS. 2 and 3, the respective compound was preadministered at (open circle); 50 (closed circle); and 100 (closed square) nmole/mouse.
Comparison of anticonvulsant activity of compounds of the
present invention and dextrorphan against NMDA-induced
convulsions in mice (at 1 nmole/mouse)

[1] = Locomotion and falling behaviour; conditions: I.C.V., mice, observed 15 to 30 minutes
Description: Mice were place individually in observation cages for a 60 minute habituation period. They were injected I.C.V. with test compounds and observed for 15 to 30 minutes. Locomotion and falling behavior were assessed according to the procedure of Koek and Colpaert (J. Pharm. Exp. Therm. 252 349-357, 1990). For each animal, the presence of locomotor activity and falling behaviour was recorded. Statistical significance of drug-induced changes in the occurrence of a particular behaviour was tested by means of the method of Fray et al. (Psycopharmacol 69 253-259, 1980). MK-801, known to have intrinsic neurotoxicity, induced falling behaviour at doses as low as 1.5 nmol/mouse.

[2] = Motor coordination by rotarod; conditions: 8 rpm, Compound #13 compared to dextrorphan
Description: Motor effects illicited by various antagonists were assessed using a rotarod treadmill (model 7600, UGO Basile, Italy). The method used was similar to the procedure described by Dunhamand Miya (J. Am. Pharmac. Assoc. 46 208-209-1957). The apparatus consisted of a rod of 2.5 cm diameter which was suspended horizontally 50 cm above a working area. The rod was turned at a speed of 8 rpm. Circular perplex separators were placed at intervals along the rod so that five animals could be tested simultaneously. All animals were conditioned to the rod for two consecutive days prior to experimentation.
The results of a study in which comparative motor impairment caused by Compound #13 was compared to dextrorphan, as assessed by rotarod.

## CC12CCCCSC(Cc3ccc(O)cc31)C2NC(=N)N (stereo not drawn) [Compound #11, trans-5,6,7,8,9,11,12-heptahydro-10-thia-3-hydroxy-5-methyl-5,11-methanobenzocyclodecen-13-guanidine]
NMDA-induced convulsions; NMDA-induced convulsions in mice
  potency relative to Dextrorphan: approximately 3 fold
NMDA-induced convulsions; NMDA-induced convulsions in mice, in words
  anticonvulsive activity: greatest activity
NMDA-induced convulsions
  CD50 (95% confidence interval): 0.16 (0.11-0.25) nmo1/mouse

## COc1ccc2c(c1)C1(C)CCCCSC(C2)C1N (stereo not shown) [Compound #8b, 5,6,7,8,9,11,12-heptahydro-3-methoxy-5-methyl-10-thia-5,11-methanobenzocyclodecen-13-amine]
NMDA-induced convulsions
  CD50 (95% confidence interval): 7.64 (4.8-12.0) nmo1/mouse

## CC12CCCCSC(Cc3ccc(O)cc31)C2N (single isomer, unassigned; (+)) [Compound #9b, (+)-trans-5,6,7,8,9,11,12-heptahydro-10-thia-3-hydroxy-5-methyl-5,11-methanobenzocyclodecen-13amine]
NMDA-induced convulsions
  CD50 (95% confidence interval): 1.58 (0.95-2.62) nmo1/mouse

## CC12CCCCSC(Cc3ccc(O)cc31)C2N (stereo not shown) [Compound #9, 5,6,7,8,9,11,12-heptahydro-3-hydroxy-5-methyl-10-thia-5,11-methanobenzocyclodecen-13-amine]
NMDA-induced convulsions
  neuroprotectant activity, dose dependence: dose dependent neuroprotectant activity effect
  time course of protecting effects: time-dependent decreases in the protective effects
  CD50 (95% confidence interval): 0.95 (0.62-1.45) nmo1/mouse

## C[C@]12N[C@H](Cc3ccccc31)c1ccccc12 [MK-801]
[1]
  dose inducing falling behaviour (as low as): 1.5 nmol/mouse

## CC12CCCCSC(Cc3ccc(O)cc31)C2NO (stereo not drawn) [Compound #10, 5,6,7,8,9,11,12-heptahydro-3-hydroxy-5-methyl-10-thia-5,11-methanobenzocyclodecene-13-β-hydroxylamine]
NMDA-induced convulsions
  CD50 (95% confidence interval): 1.79 (0.99-3.25) nmo1/mouse

## CC12CCCCSC(Cc3ccc(O)cc31)C2N (single isomer, unassigned; (-)) [Compound #9a, (-)-trans-5,6,7,8,9,11,12-heptahydro-10-thia-3-hydroxy-5-methyl-5,11-methanobenzocyclodecen-13-amine]
NMDA-induced convulsions
  CD50 (95% confidence interval): 2.90 (1.75-4.85) nmo1/mouse

## CC12CCCCCC(Cc3ccc(O)cc31)C2N (stereo not shown) [Compound #13, 5,6,7,8,9,11,12-heptahydro-3-hydroxy-5-methyl-5, 11-methanobenzocyclodecene-13-amine, reference compound]
NMDA-induced convulsions
  neuroprotectant activity, dose dependence: dose dependent neuroprotectant activity effect
  time course of protecting effects: time-dependent decreases in the protecting effects
  CD50 (95% confidence interval): 28.7 (15.3-53.8) nmo1/mouse
[2]
  percentage of animals showing motor effects: higher for animals treated with dextrorphan than for animals treated with Compound #13

## CN1CC[C@@]23CCCC[C@@H]2[C@@H]1Cc1ccc(O)cc13 [Dextrorphan, dextrorphan, reference compound]
NMDA-induced convulsions
  neuroprotectant activity, dose dependence: dose dependent neuroprotectant activity effect
  time course of protecting effects: time-dependent decreases in the protecting effects
  CD50 (95% confidence interval): 0.55 (0.39-0.78) nmo1/mouse
[2]
  percentage of animals showing motor effects: higher for animals treated with dextrorphan than for animals treated with Compound #13
